Patent US9205141B2, “Immunomodulatory methods and systems for treatment and/or prevention of hypertension” (Cardio Vax, LLC, priority 2010, dated 2015)

What was measured:
[1] = system: AngII-infused male apoE KO mice; assay: Blood pressure and heart rate in angiotensin II-infused apoE KO mice after P210 immunization; format: in vivo; details: apoE KO mice immunized s.c. 100 μg at 7, 10, 12 weeks; AngII 1000 ng/Kg/min; 4 weeks after pump implantation
Experimental: Saline was delivered to the control group.
Angiotensin II infusion via implanted osmotic pump was started at 10 weeks of age. Mice were euthanized at 14 weeks of age. Blood pressure was measured throughout the duration of experiment.

[2] = system: male apoE (−/−) mice; assay: Athero-protective effect of p210 immunization in apoE (−/−) mice on high cholesterol chow; format: in vivo; details: 100 μg dose compared to 25 or 50 μg dose
Text: Selection of peptides and their preparation for immunization The establishment and screening of human apoB-100 peptides has been reported (8). Based on Applicants pilot experiments and prior reports, (9),(10) Applicants selected peptide 210 (p210, KTTKQ SFDLS VKAQY KKNKH—SEQ ID NO: 210) as a candidate immunogen. Native p210 peptide (Euro-Diagnostica AB, Sweden) was conjugated to cationic bovine serum albumin (cBSA) as carrier using a method described previously. (3),(4) Alum was used as adjuvant and mixed with peptide/cBSA conjugate with 1:1 ratio in volume. Peptide conjugation and mixing with alum were prepared fresh prior to each immunization.
Immunization protocols Male apoE (−/−) mice (Jackson Laboratories) were housed in an animal facility accredited by the American Association of Accreditation of Laboratory Animal Care and kept on a 12-hour day/night cycle with unrestricted access to water and food. The Institutional Animal Care and Use Committee of Cedars-Sinai Medical Center approved the experimental protocols. […] Mice, maintained on normal chow diet, received subcutaneous primary immunization in the dorsal area between scapulas at 6-7 weeks of age, followed by a booster at 9 and 12 weeks of age. One week after last booster, diet was switched to high cholesterol chow (TD 88137, Harlan-Teklad) and continued until euthanasia at the age of 25 weeks. […]

[3] = system: naïve male apoE (−/−) recipient mice; assay: Adoptive transfer of cells from immunized donors to naive apoE (−/−) recipients; format: in vivo
Text: Adoptive transfer experiment Male apoE (−/−) mice on regular chow received subcutaneous immunization as described in previous paragraph and were sacrificed at 13 weeks of age as donors. Splenocytes from the same treatment group were pooled before cell isolation. Donor CD8(+) T-cells, CD4(+)CD25(+) T-cells or B-cells were isolated using Dynabeads FlowComp (Invitrogen) according to the manufacturer's protocols. CD4(+) T-cells were negatively selected from the splenocytes followed by positive selection of CD4(+)CD25(+) cells. B cells were negatively isolated whereas CD8(+) T-cells were positively isolated first and released from beads. The purity of pooled CD8(+) T-cells, CD4(+)CD25(+) T-cells and B-cells was 90%, 80% and 70%, respectively. The isolated CD8(+) T-cells (1×10^6 cells/mouse), CD4(+)CD25(+) T-cells (1×10^5 or 3×10^5 cells/mouse) or B-cells (2×10^7 cells/mouse) were then adoptively transferred to naïve male apoE (−/−) recipient mice at 6-7 weeks of age via tail vein injection. In the published literatures of vascular biology, the number of adoptively transferred lymphocytes varied greatly. For B-cells transfer, the number of 2×10^7 cells/mouse was chosen based on two prior reports. (11),(12) For CD4(+)CD25(+) T-cells transfer, the number of cells transferred ranged from 5×10^4 cells/mouse to 1×10^6 cells/mouse in the published literature. […]

[4] = system: bone marrow derived DCs; assay: Cytolytic activity of CD8(+) T cells from immunized mice against dendritic cells in vitro; format: cell-based
Experimental: In Vitro Generation of BM-Derived dendritic cells (BMDCs) The method for generating BMDC with GM-CSF was adapted from previous publication with modification. (19) Briefly, bone marrow cells from femurs and tibiae of male apoE−/− mice were plated into 10 cm culture plates (Falcon) with 20 ml complete RPMI-1640 containing 10 ng/ml GM-CSF (R&D Systems) and 10 ng/ml IL-4 (Invitrogen). Cells were washed and fed on day 3 and day 5 by removing the old medium followed by replenishing with fresh culture medium with GM-CSF and IL-4. On day 8, the immature DC appeared as non-adherent cells under the microscope and harvested by vigorous pipetting and subcultured into new culture plates with 2×10^5 DCs in 1.5 ml medium.
CD8(+) T-cells were negatively isolated using a CD8 selection Dynabeads kit (Invitrogen) per manufacturer's protocol. The selected CD8(+) T-cells were then co-culture with DCs in a CD8:DC ratio of 3:1. A series of pilot studies has been performed to determine the optimal CD8:DC ratio for this assay. After co-culture for 4 hours, cells were collected and processed for flow cytometric determination of CD11c and 7-AAD by LSR II flow cytometer (BD Biosciences) and data was analyzed with Summit V4.3 software. Dendritic cell death without CD8(+) T-cells in the co-culture was used as baseline and percentage of specific lysis of cells was calculated using a method described previously. (20)
One week after the third immunization, mice were euthanized to collect spleen CD8^+ T cells. Bone-marrow derived DCs were differentiated from naïve apoE−/− mice and used as target cells. […]
Applicants therefore assessed the effect of the vaccine on cytotoxic activity of CD8^+ T cells against syngeneic bone marrow-derived DCs. […] Cells were collected and processed for flow cytometric determination of CD11c^+ and 7-AAD 4 hours later.^20 Dendritic cell death without CD8^+ T cells in the co-culture was used as baseline and percentage of specific lysis of cells was calculated using a method described previously.^20

[5] = system: BMDCs; assay: Endocytosis of FITC-labeled p210 by DCs in vitro; format: cell-based, mice; details: FITC fluorescence in BMDCs
Text: Peptide loading on BMDCs was defined using p210 labeled with FITC (FITC conjugating kit from Pierce).

[6] = system: CD8+CD25− T cells co-cultured with DCs; assay: Presentation of p210 by DCs to CD8+CD25− T cells in co-culture; format: cell-based; details: 48 hours, DCs treated with LPS, compared to untreated or LPS only treated co-cultures
Text: The p210 peptide contains the proteoglycan binding site of the apoB-100 molecule. This peptide is a cell-penetrating peptide capable of efficiently delivering antigens for cross-presentation to cytotoxic CD8^+ T cells.^53 Applicants therefore assessed activation of CD8^+CD25^− T cells co-cultured with DCs loaded with p210 and matured with LPS.

[7] = CD8(+) T-cells from immunized mice vs PBS or cBSA/alum

With “KTTKQ SFDLS VKAQY KKNKH (KTTKQSFDLSVKAQYKKNKH) [p210, amino acids 3136-3155 of human apoB-100]” the “reduction in blood pressure” value [1] was “about 11%”, the “athero-reduction by dose (pilot experiment)” value [2] was “optimum athero-reduction” and the “lesion size in recipients of CD4(+)CD25(+) T-cells” value ([3]; 1×10^5 cells/mouse) was “no difference in lesion size”. For the same substance, the “lesion size in recipients of CD4(+)CD25(+) T-cells” value ([3]; 3×10^5 cells/mouse) was “did not reduce lesion sizes”, the “granzyme B expression of CD8(+) T-cells” value [4, 7] was “increased granzyme B expression” and the “perforin level of CD8(+) T-cells” value [4, 7] was “no difference in perforin level”. The “cytolytic activity after depletion of CD25+ cells” value ([4]; CD8+ T cells depleted of CD25+ cells) was “abrogated the increased cytolytic activity”, the “uptake of FITC-labeled p210 by dendritic cells” value [5] was “endocytosed by DCs” and the “activated CD8+CD25+ T cells after co-culture with p210-loaded DCs” value [6] was “significantly increased CD8^+CD25^+ T cells”.
